In the supplement of paper PMC10307832:

Columns and labels:
Test in all cases: relative viability (nuclei count vs DMSO), 5 days (fraction); higher = more cells survive
[1] = compound: C/C(=N\NC(=S)N1CCC1)/C2=CC=CC=N2
In short: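 Nuclei counted with MetaXpress define viability as the ratio of treated to vehicle wells, given as a median across plates. The lung cancer cell lines were in 1536-well plates, pinned with five √10-spaced library-drug doses and imaged at 4× after 5 days and Hoechst staining. Plates passed with control CV below 25% and at least one doubling.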

[2] = compound: C/C(=N\NC(=S)N1CCC1)/C2=CC=CC=N2 + CC1(C)CCC(c2ccc(Cl)cc2)=C(CN2CCN(c3ccc(C(=O)NS(=O)(=O)c4ccc(N[C@H](CCN5CCOCC5)CSc5ccccc5)c(S(=O)(=O)C(F)(F)F)c4)cc3)CC2)C1 [Navitoclax] (partner 0.5 µM)
In short: (§1)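 After 5 days of treatment, lung cancer cells in 1536-well plates were fixed and stained in a single step (final 0.05% Triton X-100, 1% formaldehyde, 1 ug/ml Hoechst) and their nuclei counted on 4× images. Treatment had been applied by pin tool the day after seeding as one drug alone or as a fixed anchor-drug dose with five library-drug doses (not always all listed) in √10 steps. Relative viability is the nuclei count of treated wells divided by that of vehicle wells, and values are medians of duplicate plates.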

[3] = compound: C/C(=N\NC(=S)N1CCC1)/C2=CC=CC=N2 + Cc1cc(Nc2cc(N3CCN(C)CC3)nc(Sc3ccc(NC(=O)C4CC4)cc3)n2)n[nH]1 [Tozasertib] (partner 0.1 µM)
In short: as §1

[4] = compound: C/C(=N\NC(=S)N1CCC1)/C2=CC=CC=N2 + N=C(N)NC(=N)NCCc1ccccc1 [Phenformin] (partner 250 µM)
In short: as §1

| Cell Line | relative viability ([1]; 0.05 µM) | relative viability ([1]; 0.1581 µM) | relative viability ([1]; 0.5 µM) | relative viability ([1]; 1.581 µM) | relative viability ([1]; 5 µM) | relative viability ([2]; first compound 0.05 µM) | relative viability ([2]; first compound 0.1581 µM) | relative viability ([2]; first compound 0.5 µM) | relative viability ([2]; first compound 1.581 µM) | relative viability ([2]; first compound 5 µM) | relative viability ([3]; first compound 0.05 µM) | relative viability ([3]; first compound 0.1581 µM) | relative viability ([3]; first compound 0.5 µM) | relative viability ([3]; first compound 1.581 µM) | relative viability ([3]; first compound 5 µM) | relative viability ([4]; first compound 0.05 µM) | relative viability ([4]; first compound 0.1581 µM) | relative viability ([4]; first compound 0.5 µM) | relative viability ([4]; first compound 1.581 µM) | relative viability ([4]; first compound 5 µM) |
| --- | --- | --- | --- | --- | --- | --- | --- | --- | --- | --- | --- | --- | --- | --- | --- | --- | --- | --- | --- | --- |
| LK-2 | 0.172 | 0.182 | 0.18 | 0.14 | 0.176 | 0.121 | 0.146 | 0.108 | 0.112 | 0.126 | 0.166 | 0.139 | 0.157 | 0.147 | 0.149 | 0.119 | 0.185 | 0.13 | 0.085 | 0.151 |
| LOU-NH91 | 0.5 | 0.572 | 0.553 | 0.42 | 0.464 | 0.275 | 0.308 | 0.253 | 0.225 | 0.278 | 0.38 | 0.411 | 0.366 | 0.313 | 0.367 | 0.371 | 0.403 | 0.352 | 0.262 | 0.419 |
| LU99A | 0.161 | 0.209 | 0.162 | 0.145 | 0.182 | 0.196 | 0.181 | 0.139 | 0.154 | 0.187 | 0.155 | 0.164 | 0.164 | 0.152 | 0.165 | 0.163 | 0.189 | 0.145 | 0.143 | 0.178 |
| LXF-289 | 0.276 | 0.313 | 0.278 | 0.292 | 0.119 | 0.431 | 0.361 | 0.248 | 0.193 | 0.108 | 0.126 | 0.108 | 0.114 | 0.124 | 0.0738 | 0.22 | 0.203 | 0.202 | 0.2 | 0.0793 |
| NCI-H23 | 0.17 | 0.196 | 0.187 | 0.154 | 0.172 | 0.139 | 0.186 | 0.117 | 0.135 | 0.171 | 0.122 | 0.172 | 0.119 | 0.112 | 0.133 | 0.144 | 0.164 | 0.185 | 0.117 | 0.139 |
| NCI-H322M | 0.337 | 0.337 | 0.352 | 0.329 | 0.35 | 0.268 | 1.21 | 0.208 | 0.281 | 0.277 | 0.271 | 0.27 | 0.241 | 0.313 | 0.364 | 0.332 | 0.375 | 0.249 | 0.255 | 0.311 |
| NCI-H441 | 0.233 | 0.175 | 0.185 | 0.145 | 0.123 | 0.374 | 0.188 | 0.205 | 0.174 | 0.15 | 0.294 | 0.229 | 0.159 | 0.168 | 0.195 | 0.204 | 0.16 | 0.197 | 0.156 | 0.187 |
| NCI-H460 | 0.0678 | 0.0619 | 0.0798 | 0.0529 | 0.0177 | 0.0277 | 0.0183 | 0.0198 | 0.0147 | 0.0062 | 0.0816 | 0.0449 | 0.0431 | 0.0348 | 0.0095 | 0.0303 | 0.0322 | 0.0348 | 0.0156 | 0.0113 |
| NCI-H520 | 0.164 | 0.17 | 0.141 | 0.16 | 0.172 | 0.19 | 0.212 | 0.301 | 0.151 | 0.166 | 0.191 | 0.241 | 0.197 | 0.175 | 0.269 | 0.149 | 0.255 | 0.168 | 0.143 | 0.251 |
| NCI-H596 | 0.307 | 0.311 | 0.257 | 0.222 | 0.263 | 0.66 | 0.38 | 0.226 | 0.274 | 0.161 | 0.445 | 0.34 | 0.191 | 0.195 | 0.2 | 0.301 | 0.391 | 0.324 | 0.239 | 0.259 |
| NCI-H647 | 0.114 | 0.116 | 0.136 | 0.115 | 0.0991 | 0.133 | 0.129 | 0.117 | 0.123 | 0.116 | 0.0603 | 0.0452 | 0.0549 | 0.0672 | 0.0612 | 0.0392 | 0.0555 | 0.125 | 0.0761 | 0.0797 |
| NCI-H727 | 0.25 | 0.235 | 0.245 | 0.27 | 0.272 | 0.109 | 0.0812 | 0.098 | 0.189 | 0.257 | 0.28 | 0.311 | 0.257 | 0.159 | 0.261 | 0.29 | 0.314 | 0.341 | 0.375 | 0.382 |
| NCI-H838 | 0.247 | 0.255 | 0.279 | 0.179 | 0.185 | 0.259 | 0.258 | 0.229 | 0.192 | 0.225 | 0.148 | 0.143 | 0.137 | 0.133 | 0.129 | 0.163 | 0.171 | 0.175 | 0.123 | 0.139 |
| NCI-H1355 | 0.204 | 0.216 | 0.21 | 0.197 | 0.214 | 0.181 | 0.718 | 0.129 | 0.143 | 0.165 | 0.186 | 0.169 | 0.17 | 0.172 | 0.163 | 0.266 | 0.295 | 0.251 | 0.263 | 0.2 |
| NCI-H1395 | 0.423 | 0.41 | 0.336 | 0.344 | 0.383 | 0.4 | 0.346 | 0.365 | 0.338 | 0.352 | 0.389 | 0.347 | 0.359 | 0.34 | 0.328 | 0.279 | 0.349 | 0.364 | 0.307 | 0.389 |
| NCI-H1437 | 0.242 | 0.235 | 0.206 | 0.173 | 0.155 | 0.166 | 0.142 | 0.152 | 0.109 | 0.0981 | 0.144 | 0.138 | 0.157 | 0.133 | 0.102 | 0.132 | 0.182 | 0.182 | 0.162 | 0.159 |
